Source: publication PMC4404333, “Identification of Selective Inhibitors of the Plasmodium falciparum Hexose Transporter PfHT by Screening Focused Libraries of Anti-Malarial Compounds” (PLoS ONE, 2015)
Converted amounts (≈) assume the structure as drawn. “And” between values parts separate entries of the source, which are not always exact repeats. Equal entries are not always repeated. Structures can show the parent of a compound that is named as a salt. Where two headings read alike, the source gives them in different places.

How the values were obtained:
Solubility assay = format: physicochemical; conditions: aqueous buffer, kinetic from dmso stock, PBS pH 7.4, room temperature
Protocol: Next, 5 μL of this reference stock plate was mixed with 70 μL of 1-propanol and 75 μL of PBS (pH 7.4) to make the reference plate, and the UV spectrum (250–500 nm) of the reference plate was read. Then, 6 μL of 10 mM test compound stock was added to 600 μL of PBS, pH 7.4, in a 96-well storage plate and mixed. The storage plate was sealed and incubated at room temperature for 18 h. The suspension was then filtered through a 96-well filter plate (pION Inc.). Next, 75 μL of filtrate was mixed with 75 μL of 1-propanol to make the sample plate, and the UV spectrum of the sample plate was read. Calculations were done using μSOL Evolution software based on the area under the curve (AUC) of the UV spectrum of the sample plate and the reference plate. All compounds were tested in triplicate.

[1] = Parallel artificial membrane permeability assay (PAMPA); conditions: for Permeation: pH 7.4; for Retention: retention in artificial membrane
Protocol: A parallel artificial membrane permeability assay (PAMPA) was conducted on a Biomek FX lab automation workstation (Beckman Coulter, Inc.) with PAMPA evolution 96 command software (pION Inc.) as follows: 3 μL of 10 mM test compound stock was mixed with 600 μL of PBS (pH 7.4) to make diluted test compound. Then 150 μL of diluted test compound was transferred to a UV plate (pION Inc.), and the UV spectrum was read as the reference plate. The membrane on a preloaded PAMPA sandwich (pION Inc.) was painted with 4 μL of GIT lipid (pION Inc.). The acceptor chamber was then filled with 200 μL of acceptor solution buffer (pION Inc.), and the donor chamber was filled with 180 μL of diluted test compound. The PAMPA sandwich was assembled, placed on the Gut-Box controlled environment chamber and stirred for 30 min. The aqueous boundary layer was set to 40 μm for stirring. The UV spectrum (250–500 nm) of the donor and the acceptor were read. The permeability coefficient was calculated using PAMPA Evolution 96 Command software (pION Inc.) based on the AUC of the reference plate, the donor plate, and the acceptor plate. All compounds were tested in triplicate.

P. falciparum strain 3D7 = assay: Proliferation of intraerythrocytic P. falciparum 3D7 (SYBR Green, 72 h); format: cell-based, Plasmodium falciparum; conditions: Plasmodium falciparum, 3D7, 72 h, read-out: Pf 3D7 EC50
Protocol: (§1) Two P. falciparum strains were used in this study and were provided by the MR4 Unit of the American Type Culture Collection (ATCC, Manassas, VA). Those two strains were the chloroquine sensitive strain 3D7 and the K1 strain that is resistant to chloroquine, pyrimethamine, and sulfadoxine.
(§2) Asynchronous parasites were maintained in culture based on the method of Trager. Parasites were grown in presence of fresh group O-positive erythrocytes (Key Biologics, LLC) in Petri dishes at a hematocrit of 4–6% in RPMI based media (RPMI 1640 supplemented with 0.5% AlbuMAX II, 25 mM HEPES, 25 mM NaHCO3 (pH 7.3), 100 μg/mL hypoxanthine, and 5 μg/mL gentamycin). Cultures were incubated at 37°C in a gas mixture of 90% N2, 5% O2, 5% CO2. For EC50 determinations, 20 μL of RPMI 1640 with 5 μg/mL gentamycin were dispensed per well in an assay plate (Corning 384-well microtiter plate, clear bottom, tissue culture treated, catalog no. 8807BC). 40 nL of compound, previously serially diluted in a separate 384-well white polypropylene plate (Corning, catalog no. 8748BC), was dispensed to the assay plate by hydrodynamic pin transfer (FP1S50H, V&P Scientific Pin Head) and then 20 μL of a synchronized culture suspension (1% rings, 4% hematocrit) was added to each well, thus making a final hematocrit and parasitemia of 2% and 1%, respectively. Assay plates were incubated for 72 h, and the parasitemia was determined by a method previously described: Briefly, 10 μL of the assay solution in PBS (10X SYBR Green I, 0.5% v/v triton X-100, 0.5 mg/mL saponin) was added to each well. Assay plates were shaken for 1 min, incubated in the dark for 90 min, and read with an Envision (Perkin Elmer) spectrophotometer at Ex/Em of 485 nm/535 nm. EC50s were calculated with a custom program (RISE, Robust Investigation of Screening Experiments) using a four-parameter logistic equation.

P. falciparum strain K1 = assay: Proliferation of intraerythrocytic P. falciparum K1 (SYBR Green, 72 h); format: cell-based, Plasmodium falciparum; conditions: Plasmodium falciparum, K1, 72 h, read-out: Pf K1 EC50
Protocol: as §1, §2

PfHT = PfHT (Plasmodium falciparum, UniProt Q7KWJ5); assay: Uptake of [3H] D-glucose by L. mexicana Δlmxgt1-3 null mutants expressing PfHT; format: cell-based; parameters: expressed in transfected cells; host or cells: Leishmania mexicana promastigotes, Δlmxgt1-3 hexose transporter null mutant; conditions: for SIglucose GLUT1/PfHT (Specificity Index, IC50 for GLUT1/IC50 for PfHT): uptake of 100 μM [3H] D-glucose; for Ki: linear regression; for Vmax: glucose uptake by PfHT
Protocol: (§3) Glucose uptake assays employed logarithmic phase L. mexicana promastigotes of the Δlmxgt1-3 hexose transporter null mutant strain expressing either PfHT or GLUT1 from an episomal expression vector [17]. Parasites (1x10^7) were resuspended in 100 μL phosphate buffered saline, pH 7.4. Prior to uptake, parasites were pre-incubated for 5 min with inhibitor, and uptake was initiated by adding 100 μL of 200 μM [^3H] D-glucose diluted to 4.0 μCi/mL. Uptake was terminated, typically after 1 min, by centrifuging the parasites through a layer of dibutyl phthalate, as described. Control uptake assays employing [^3H] hypoxanthine, [^3H] uridine, and [^3H] L-proline were performed similarly. Analysis of kinetic data was performed using Graph Pad Prism 4.0b software (Graph Pad).

[2] = test system: P. falciparum strain 3D7 intraerythrocytic forms; parameters: method as in PubChem web site, http://pubchem.ncbi.nlm.nih.gov/; conditions: reported values; ref PubChem web site, http://pubchem.ncbi.nlm.nih.gov/; read-out: EC50 3D7 In vitro; cited from earlier work
human GLUT1 = biological target: T1, human GLUT1 (Homo sapiens, UniProt P11166); assay: Uptake of [3H] D-glucose by L. mexicana Δlmxgt1-3 null mutants expressing GLUT1; format: cell-based; parameters: expressed in transfected cells; host or cells: Leishmania mexicana promastigotes, Δlmxgt1-3 hexose transporter null mutant; conditions: inhibition of uptake of 100 μM [3H] D-glucose, 1 min uptake assay
T1 sequence (P11166 1-492): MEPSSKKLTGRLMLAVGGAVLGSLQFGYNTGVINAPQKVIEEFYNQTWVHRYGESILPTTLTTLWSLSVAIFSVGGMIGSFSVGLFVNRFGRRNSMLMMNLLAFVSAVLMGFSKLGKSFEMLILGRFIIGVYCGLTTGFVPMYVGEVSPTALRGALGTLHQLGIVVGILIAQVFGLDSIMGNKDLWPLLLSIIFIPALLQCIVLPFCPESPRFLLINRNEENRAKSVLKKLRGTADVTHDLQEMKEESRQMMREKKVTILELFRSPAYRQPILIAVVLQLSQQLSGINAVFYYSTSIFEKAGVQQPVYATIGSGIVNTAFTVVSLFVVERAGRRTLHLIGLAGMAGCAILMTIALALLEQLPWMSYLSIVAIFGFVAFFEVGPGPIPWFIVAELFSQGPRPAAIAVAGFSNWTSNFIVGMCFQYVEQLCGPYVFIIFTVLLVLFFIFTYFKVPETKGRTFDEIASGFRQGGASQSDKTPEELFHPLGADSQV
Protocol: as §3

[3] = read-out: IC50 PfHT, inhibition of uptake of 100 μM [3H] D-glucose, 1 min uptake assay

Sequence of PfHT (Q7KWJ5 whole entry): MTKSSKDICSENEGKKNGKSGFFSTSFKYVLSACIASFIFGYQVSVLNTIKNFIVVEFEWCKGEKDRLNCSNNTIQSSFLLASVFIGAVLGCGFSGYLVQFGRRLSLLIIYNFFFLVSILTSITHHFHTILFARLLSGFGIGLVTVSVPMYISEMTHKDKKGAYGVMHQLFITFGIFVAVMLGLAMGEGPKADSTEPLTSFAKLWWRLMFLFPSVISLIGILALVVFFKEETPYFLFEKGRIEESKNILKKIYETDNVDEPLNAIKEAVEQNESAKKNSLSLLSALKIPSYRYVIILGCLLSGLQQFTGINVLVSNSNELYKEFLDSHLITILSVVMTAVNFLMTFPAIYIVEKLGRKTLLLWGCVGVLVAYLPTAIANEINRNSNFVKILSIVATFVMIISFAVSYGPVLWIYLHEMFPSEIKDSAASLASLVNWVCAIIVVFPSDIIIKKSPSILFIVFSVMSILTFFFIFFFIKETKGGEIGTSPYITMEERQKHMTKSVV

SMILES	IC50 (PfHT)	SIglucose GLUT1/PfHT (Specificity Index, IC50 for GLUT1/IC50 for PfHT) (PfHT)	EC50 [2]	IC50 (human GLUT1)	further results
CCCSc1ccc2nc(NC(=O)OC)[nH]c2c1 [Albendazole, albendazole, reference compound]					solubility at 18 h (Solubility assay): 5.9 ± 2.3 µM (≈ 1.57 µg/mL); Permeation [1]: 286 ND 10^-6 cm/s; Retention [1]: 59 ± 27%
NC(=O)N1c2ccccc2C=Cc2ccccc21 [Carbamazepine, carbamazepine, reference compound]					solubility at 18 h (Solubility assay; PBS buffer): 87 ± 1.2 µM (≈ 20.6 µg/mL); Permeation [1]: 85 ± 21 10^-6 cm/s; Retention [1]: 43 ± 3.0%
CCN(CC)CCCC(C)Nc1ccnc2cc(Cl)ccc12 (centres unmarked) [Chloroquine, chloroquine, reference compound]					EC50 (P. falciparum strain 3D7): 0.08 µM; EC50 (P. falciparum strain K1): 0.81 µM
CCC(C)(CC)C(=O)n1ncc2c3c(N)nc(N)nc3ccc21 [Compound 2]	3 µM	15	0.01 µM	44 µM	
CC(C)C(C(=O)n1ncc2c3c(N)nc(N)nc3ccc21)C(C)C [Compound 3]	1.1 µM	7.4	0.65 µM	8.1 µM	
CCC(C)(C)C1CCc2[nH]c3ccccc3c(=O)c2C1 (centres unmarked) [Compound 4]	27 µM	0.21	0.38 µM	5.7 µM	
COc1ccc(Nc2cc(C)nc(Nc3ccc(NC(C)=O)cc3)n2)cc1 [Compound 5]	3.4 µM	0.073	0.86 µM	0.25 µM	
Cc1cc(=O)[nH]c(-n2nc(C)cc2NC(=O)C(c2ccccc2)c2ccccc2)n1 [Compound 6]	12 µM	0.055	0.84 µM	0.66 µM	
O=C1c2ccc3c4c(ccc(c24)C(=O)N1CCCCO)C(=O)N(CCCCO)C3=O [Compound 7]	0.051 µM	71	0.79 µM	3.6 µM and > 3 µM	selective inhibition of PfHT versus GLUT1 (PfHT): 71 fold; Ki (PfHT; Kic (Ki for binding of inhibitor to free transporter), from plot of Km/Vmax versus [I]): 0.093 µM; Ki (PfHT; Kiu (Ki for binding of inhibitor to substrate-bound transporter), from plot of 1/Vmax versus [I]): 0.091 µM; Vmax (PfHT; [I] 100 nM): 274 ± 71 pmol per 10^7 cells per min; Vmax (PfHT; [I] 300 nM): 128 ± 42 pmol per 10^7 cells per min; mode of inhibition of glucose uptake through PfHT (PfHT; substrate saturation curves, one-way ANOVA of Vmax and Km): non-competitive inhibitors
CC(C)(C)C(=O)Nc1ccc(C(=O)Nc2cccc(-c3nc4ccccc4[nH]3)c2)cc1 [Compound 8]	2.7 µM	0.14	0.28 µM	0.37 µM	
CCN1CCN(Cc2ccc(NC(=O)c3cc4ccc5cccnc5c4[nH]3)cc2)CC1 [Compound 9]	3.5 µM	2.7	0.38 µM	9.5 µM	
COc1ccc(Nc2ccc3cc(S(=O)(=O)N4CCCCC4C)ccc3n2)cc1Cl (centres unmarked) [Compound 11]	0.94 µM	65		61 µM	selective inhibition of PfHT versus GLUT1 (PfHT): 65 fold
COc1ccccc1Nc1ccc2cc(S(=O)(=O)N3CCCC3)ccc2n1 [Compound 14]				6.3 µM	IC50 (PfHT; [3]): > 10 µM
COc1ccc(Nc2ccc3cc(S(=O)(=O)N4CCOCC4)ccc3n2)cc1OC [Compound 15]	3.1 µM	0.27		0.84 µM	
Cc1ccc(C(=O)Nc2cccc(-c3nc4ccccc4[nH]3)c2)cc1 [Compound 16]	23 µM	2–3 and 3.1		72 µM	
Cc1cccc(C(=O)Nc2cccc(-c3nc4ccccc4[nH]3)c2)c1 [Compound 17]	13 µM	0.92		12 µM	
Cc1cc(C)cc(C(=O)Nc2cccc(-c3nc4ccccc4[nH]3)c2)c1 [Compound 18]	16 µM	0.75		12 µM	
O=C(Nc1cccc(-c2nc3ccccc3[nH]2)c1)c1ccccc1 [Compound 19]	5.3 µM	2–3 and 2.1		11 µM	
CC(C)(C)c1ccc(C(=O)Nc2cccc(-c3nc4ccccc4[nH]3)c2)cc1 [Compound 20]				31 µM	IC50 (PfHT; [3]): > 10 µM
CC(C)(C)C(=O)Nc1ccc(C(=O)Nc2ccc(-c3nc4ccccc4[nH]3)cc2)cc1 [Compound 21]	91 µM	0.12		11 µM	
OC(c1cc(C(F)(F)F)nc2c(C(F)(F)F)cccc12)C1CCCCN1 (centres unmarked) [Mefloquine, mefloquine, reference compound]					EC50 (P. falciparum strain 3D7; chloroquine sensitive strain 3D7, 72 h): 0.12 µM; EC50 (P. falciparum strain K1; multi-drug resistant strain K1, 72 h): 0.02 µM
CNC(=C[N+](=O)[O-])NCCSCc1ccc(CN(C)C)o1 [Ranitidine HCl, ranitidine, reference compound]					solubility at 18 h (Solubility assay; PBS buffer): 84 ± 1.2 µM; Permeation [1]: 0 ± 0 10^-6 cm/s; Retention [1]: 1.7 ± 1.3%
